Common to all, as to type: functional, organism-based
For one experiment, the system named is Lacticaseibacillus casei. The experiment can be described thus: Compound was measured for the growth inhibition of Lactobacillus casei up to concentration 4 ug/mL; NA means inactive.
Experiment [1] deals with Enterococcus faecium. The experiment can be described thus: Compound was measured for the growth inhibition of Streptococcus faecium. The settings on record: read-out: I50.
The test system of experiment [2] is Enterococcus faecium. The experiment can be described thus: Compound was measured for the growth inhibition of S. faecium; NA means inactive.

Converted amounts (≈) assume the structure as drawn.

Regarding `NC1=NC(=O)C2N=C(Cc3ccc(C(=O)NC(CCC(=O)O)C(=O)O)cc3)COC2N1` (centres undefined), in the experiment with Lacticaseibacillus casei, the I50 entry is “Not Active”. Further, the IC50 with Enterococcus faecium [1] was found to be 1.4 µg/mL (≈ 3.25 µM).
As to `NC1=NC(=O)C2N=C(c3ccc(C(=O)NC(CCC(=O)O)C(=O)O)cc3)COC2N1` (centres undefined), the I50 entry with Lacticaseibacillus casei and with Enterococcus faecium [2] was “Not Active” throughout.

The record behind these values is ChEMBL document CHEMBL1122271, “Folate analogues. 22. Synthesis and biological evaluation of two analogues of dihydrofolic acid possessing a 7,8-dihydro-8-oxapterin ring system” (J Med Chem, 1983).
